Measured values: patent publication US9695155B2, “Herbicidal substituted pyrimidinyloxy benzene compounds” (E. I. DU PONT DE NEMOURS AND COMPANY, priority 2013, dated 2017)

Key:
oilseed rape = assay: Test D preemergence; type: in vivo, Brassica napus
Text: (§1) Seeds of plant species selected from bluegrass (annual bluegrass, Poa annua), blackgrass (Alopecurus myosuroides), canarygrass (littleseed canarygrass, Phalaris minor), chickweed (common chickweed, Stellaria media), galium (catchweed bedstraw, Galium aparine), bromegrass, downy (downy bromegrass, Bromus tectorum), field poppy (Papaver rhoeas), field violet (Viola arvensis), green foxtail (Setaria viridis), deadnettle (henbit deadnettle, Lamium amplexicaule), Italian ryegrass (Lolium multiflorum), kochia (Kochia scoparia), lambsquarters (Chenopodium album), oilseed rape (Brassica napus), pigweed (Amaranthus retroflexus), chamomile (scentless chamomile, Matricaria inodora), Russian thistle (Salsola kali), speedwell (bird's-eye speedwell, Veronica persica), spring barley (Hordeum vulgare), spring wheat (Triticum aestivum), wild buckwheat (Polygonum convolvulus), wild mustard (Sinapis arvensis), wild oat (Avena fatua), wild radish (Raphanus raphanistrum), windgrass (Apera spica-venti), winter barley (Hordeum vulgare), and winter wheat (Triticum aestivum) were planted into a silt loam soil and treated preemergence with test chemicals formulated in a non-phytotoxic solvent mixture which included a surfactant.
(§2) At the same time, these species were planted in pots containing Redi-Earth® planting medium (Scotts Company, 14111 Scottslawn Road, Marysville, Ohio 43041) comprising spaghnum peat moss, vermiculite, wetting agent and starter nutrients and treated with postemergence applications of the test chemicals formulated in the same manner. Plants ranged in height from 2 to 18 cm (1- to 4-leaf stage). Treated plants and controls were maintained in a controlled growth environment for 7 to 21 days after which time all species were compared to controls and visually evaluated. Plant response ratings, summarized in Table D, are based on a scale of 0 to 100 where 0 is no effect and 100 is complete control. A dash (-) response means no test result.

canarygrass = assay: Test D postemergence; type: in vivo, Phalaris minor
Text: as §1, §2

kochia = assay: Test D postemergence; type: in vivo, Kochia scoparia
Text: as §1, §2

green foxtail [1] = assay: Test D preemergence; type: in vivo, Setaria viridis
Text: as §1, §2

spring barley = assay: Test D postemergence; type: in vivo, Hordeum vulgare
Text: as §1, §2

winter barley = assay: Test D postemergence; type: in vivo, Hordeum vulgare
Text: as §1, §2

wild buckwheat = assay: Test D postemergence; type: in vivo, Polygonum convolvulus
Text: as §1, §2

green foxtail [2] = assay: Test D postemergence; type: in vivo, Setaria viridis
Text: as §1, §2

lambsquarters = assay: Test D postemergence; type: in vivo, Chenopodium album
Text: as §1, §2

chamomile = assay: Test D postemergence; type: in vivo, Matricaria inodora
Text: as §1, §2

[3] = 16 g ai/ha, scale 0 (no effect) to 100 (complete control)
[4] = 31 g ai/ha, scale 0 to 100 (0 no effect, 100 complete control)
[5] = 62 g ai/ha, scale 0 to 100 (0 no effect, 100 complete control)
[6] = 125 g ai/ha, scale 0 to 100 (0 no effect, 100 complete control)
[7] = 250 g ai/ha, scale 0 to 100 (0 no effect, 100 complete control)
[8] = Postemergence, 62 g ai/ha, scale 0 to 100 (0 no effect, 100 complete control)
[9] = Postemergence, 31 g ai/ha, scale 0 to 100 (0 no effect, 100 complete control)
[10] = Postemergence, 125 g ai/ha, scale 0 to 100 (0 no effect, 100 complete control)
[11] = Postemergence, 250 g ai/ha, scale 0 to 100 (0 no effect, 100 complete control)
[12] = postemergence, 16 g ai/ha, scale 0 to 100, 0 no effect, 100 complete control

SMILES: Clc1cnc(Oc2ccccc2-n2cc(Cl)cn2)nc1 [Compound 3]
- Plant response rating, Oilseed Rape (oilseed rape; [3]): 10
- Plant response rating, Oilseed Rape (oilseed rape; 31 g ai/ha, scale 0-100): 75
- Plant response rating, Oilseed Rape (oilseed rape; 62 g ai/ha, scale 0-100): 70
- Plant response rating, Oilseed Rape (oilseed rape; 125 g ai/ha, scale 0-100): 100
- Plant response rating, Oilseed Rape (oilseed rape; 250 g ai/ha, scale 0-100): 100
- Plant response rating, Canarygrass (canarygrass; 16 g ai/ha, scale 0-100): 30
- Plant response rating, Canarygrass (canarygrass; [4]): 0
- Plant response rating, Canarygrass (canarygrass; [5]): 0
- Plant response rating, Canarygrass (canarygrass; [6]): 0
- Plant response rating, Canarygrass (canarygrass; [7]): 10
- Plant response rating, Kochia (kochia; 16 g ai/ha, scale 0-100): 20
- Plant response rating, Kochia (kochia; [4]): 5
- Plant response rating, Kochia (kochia; [5]): 5
- Plant response rating, Kochia (kochia; [6]): 25
- Plant response rating, Kochia (kochia; [7]): 55
- Plant response rating, Foxtail, Green (green foxtail [1]; [3]): 10
- Plant response rating, Foxtail, Green (green foxtail [1]; 62 g ai/ha, scale 0-100): 10
- Plant response rating, Foxtail, Green (green foxtail [1]; 125 g ai/ha, scale 0-100): 10
- Plant response rating, Foxtail, Green (green foxtail [1]; 250 g ai/ha, scale 0-100): 30
- Plant response rating, Barley, Spring (spring barley; [8]): 0
- Plant response rating, Barley, Spring (spring barley; [9]): 0
- Plant response rating, Barley, Spring (spring barley; [10]): 0
- Plant response rating, Barley, Spring (spring barley; [11]): 10
- Plant response rating, Barley, Spring (spring barley; [12]): 50
- Plant response rating, Barley, Winter (winter barley; [8]): 0
- Plant response rating, Barley, Winter (winter barley; [9]): 0
- Plant response rating, Barley, Winter (winter barley; [10]): 0
- Plant response rating, Barley, Winter (winter barley; [11]): 0
- Plant response rating, Barley, Winter (winter barley; [12]): 50
- Plant response rating, Buckwheat, Wild (wild buckwheat; [8]): 50
- Plant response rating, Buckwheat, Wild (wild buckwheat; [9]): 10
- Plant response rating, Buckwheat, Wild (wild buckwheat; [10]): 60
- Plant response rating, Buckwheat, Wild (wild buckwheat; [11]): 80
- Plant response rating, Buckwheat, Wild (wild buckwheat; [12]): 50
- Plant response rating, Foxtail, Green (green foxtail [2]; 16 g ai/ha, scale 0-100): 10
- Plant response rating, Foxtail, Green (green foxtail [2]; [4]): 0
- Plant response rating, Foxtail, Green (green foxtail [2]; [5]): 0
- Plant response rating, Foxtail, Green (green foxtail [2]; [6]): 0
- Plant response rating, Foxtail, Green (green foxtail [2]; [7]): 10
- Plant response rating, Lambsquarters (lambsquarters; 16 g ai/ha, scale 0-100): 25
- Plant response rating, Lambsquarters (lambsquarters; [4]): 20
- Plant response rating, Lambsquarters (lambsquarters; [5]): 60
- Plant response rating, Lambsquarters (lambsquarters; [6]): 80
- Plant response rating, Lambsquarters (lambsquarters; [7]): 85
- Plant response rating, Chamomile (chamomile; 16 g ai/ha, scale 0-100): 0
- Plant response rating, Chamomile (chamomile; [4]): 0
- Plant response rating, Chamomile (chamomile; [5]): 0
- Plant response rating, Chamomile (chamomile; [6]): 0
- Plant response rating, Chamomile (chamomile; [7]): 0
